In US10793563B2, “GCN2 inhibitors and uses thereof” (Merck Patent GmbH, priority 2018, dated 2020):

Key:
GCN2 kinase = GCN2 kinase (Homo sapiens (Human), UniProt Q9P2K8); assay: GCN2 Enzyme Inhibition Assay (Transcreener ADP2 fluorescence polarization); assay type: biochemical; conditions: 280 μM ATP, 200 μM (RS)7 peptide, 4 nM GCN2, 25° C.; for Ki: Ki(app)
How it was run: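 At 25 °C, GCN2 kinase (typical final concentration 4 nM) and (RS)7 peptide in Tris-HCl pH 7.5 buffer with MgCl2, NaCl and DTT were preincubated with compound for 10 min, then ATP was added for a 1 h reaction. ADP was read by FP with antibody/Alexa633 tracer. Non-linear tight-binding analysis gave IC50 and apparent Ki.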

[1] = target: intracellular GCN2 (phosphorylation of the GCN2 substrate eIF2α) (Homo sapiens (Human), UniProt Q9P2K8); assay: GCN2 Cellular Inhibition Assay (AlphaScreen SureFire P-eIF2α Ser51, borrelidin-treated U2OS cells); assay type: cell-based; conditions: 10 μM borrelidin, 1 h, phosphorylated eIF2α Ser51, read-out: GCN2 Biomarker (IC50)
How it was run: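 Phospho-eIF2α (Ser51) measured by AlphaScreen SureFire in lysates of U2OS cells stimulated 1 h at 37 °C with 10 μM borrelidin alongside compound, 4-fold dilutions from 40 μM. Inhibition expressed as percent relative to borrelidin-alone controls.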

Sequence of intracellular GCN2 (phosphorylation of the GCN2 substrate eIF2α) (Q9P2K8 whole entry): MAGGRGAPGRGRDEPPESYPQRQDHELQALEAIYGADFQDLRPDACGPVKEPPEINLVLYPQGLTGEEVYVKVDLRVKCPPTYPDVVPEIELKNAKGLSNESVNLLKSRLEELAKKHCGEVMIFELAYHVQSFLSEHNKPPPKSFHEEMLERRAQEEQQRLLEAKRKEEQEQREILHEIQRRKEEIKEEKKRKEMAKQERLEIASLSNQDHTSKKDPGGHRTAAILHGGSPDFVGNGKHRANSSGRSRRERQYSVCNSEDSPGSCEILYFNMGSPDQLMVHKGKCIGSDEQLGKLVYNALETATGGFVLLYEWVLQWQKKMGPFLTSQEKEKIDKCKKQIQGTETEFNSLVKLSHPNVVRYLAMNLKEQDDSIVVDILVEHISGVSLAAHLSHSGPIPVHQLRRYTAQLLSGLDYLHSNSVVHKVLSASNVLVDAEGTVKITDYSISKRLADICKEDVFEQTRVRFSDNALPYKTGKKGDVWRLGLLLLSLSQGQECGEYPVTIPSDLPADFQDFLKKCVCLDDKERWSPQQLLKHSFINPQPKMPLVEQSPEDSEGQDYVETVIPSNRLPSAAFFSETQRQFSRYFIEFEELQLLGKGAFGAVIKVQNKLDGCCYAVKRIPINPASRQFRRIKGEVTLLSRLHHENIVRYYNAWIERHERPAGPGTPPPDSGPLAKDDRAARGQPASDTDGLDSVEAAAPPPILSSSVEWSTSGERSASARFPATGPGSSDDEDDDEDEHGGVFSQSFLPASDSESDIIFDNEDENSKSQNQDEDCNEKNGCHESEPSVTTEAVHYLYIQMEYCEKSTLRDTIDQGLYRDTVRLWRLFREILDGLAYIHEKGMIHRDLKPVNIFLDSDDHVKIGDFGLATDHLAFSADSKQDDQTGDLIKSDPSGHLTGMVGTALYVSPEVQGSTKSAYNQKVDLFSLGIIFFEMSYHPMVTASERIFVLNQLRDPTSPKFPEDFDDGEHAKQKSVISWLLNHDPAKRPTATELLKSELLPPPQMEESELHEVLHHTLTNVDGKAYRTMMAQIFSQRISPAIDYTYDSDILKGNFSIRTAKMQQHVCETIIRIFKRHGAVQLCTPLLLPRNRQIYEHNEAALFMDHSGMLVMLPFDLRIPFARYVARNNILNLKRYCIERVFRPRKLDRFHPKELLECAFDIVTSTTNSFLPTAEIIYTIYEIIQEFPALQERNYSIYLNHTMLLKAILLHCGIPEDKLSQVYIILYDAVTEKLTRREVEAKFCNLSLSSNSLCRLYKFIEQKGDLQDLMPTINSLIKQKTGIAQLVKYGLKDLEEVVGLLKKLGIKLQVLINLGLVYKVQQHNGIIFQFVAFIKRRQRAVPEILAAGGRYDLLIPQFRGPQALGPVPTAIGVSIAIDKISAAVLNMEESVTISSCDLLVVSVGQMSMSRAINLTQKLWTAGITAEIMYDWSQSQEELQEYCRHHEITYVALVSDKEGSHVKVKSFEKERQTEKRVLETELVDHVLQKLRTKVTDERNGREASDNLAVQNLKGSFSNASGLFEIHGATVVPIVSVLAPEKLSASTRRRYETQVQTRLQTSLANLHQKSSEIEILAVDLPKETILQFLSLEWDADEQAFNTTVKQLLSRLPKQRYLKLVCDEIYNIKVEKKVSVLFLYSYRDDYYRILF
Sequence of GCN2 kinase (Q9P2K8 whole entry): as above

| SMILES | IC50 (GCN2 kinase) [nM] | IC50 [1] [nM] | Ki (GCN2 kinase) [nM] |
| --- | --- | --- | --- |
| C[C@@H]1C[C@@H](c2cn[nH]c2)CN(c2nccc(-c3cnc4ccc(C5CC5)cn34)n2)C1 [I-236, 6-cyclopropyl-3-(2-((3R,5S)-3-methyl-5-(1H-pyrazol-4-yl)piperidin-1-yl)pyrimidin-4-yl)imidazo[1,2-a]pyridine] | 10 to 100 | < 500 |  |
| C[C@@H]1CN(c2nccc(-c3cnc4cc(F)c(Cl)cn34)n2)C[C@@H](c2cn[nH]c2)O1 [I-274, (2R,6R)-4-(4-(6-chloro-7-fluoroimidazo[1,2-a]pyridin-3-yl)pyrimidin-2-yl)-2-methyl-6-(1H-pyrazol-4-yl)morpholine] | 10 to 100 | 500 to 5000 |  |
| Cc1n[nH]cc1C1CC(O)CN(c2ccnc(-c3cnc4ccc(Cl)cn34)n2)C1 (centres unmarked) [I-302, 1-(2-(6-chloroimidazo[1,2-a]pyridin-3-yl)pyrimidin-4-yl)-5-(3-methyl-1H-pyrazol-4-yl)piperidin-3-ol] | < 10 | < 500 |  |
| N#Cc1ccc2ncc(-c3nccc(N4CCOC(c5cn[nH]c5C(F)F)C4)n3)n2c1 (centres unmarked) [I-193, 3-(4-(2-(5-(difluoromethyl)-1H-pyrazol-4-yl)morpholino)pyrimidin-2-yl)imidazo[1,2-a]pyridine-6-carbonitrile] | < 10 | < 500 |  |
| NS(=O)(=O)c1ccc2ncc(-c3nccc(N4CCCC(c5cn[nH]c5)C4)n3)n2c1 (centres unmarked) [I-320, 3-(4-(3-(1H-pyrazol-4-yl)piperidin-1-yl)pyrimidin-2-yl)imidazo[1,2-a]pyridine-6-sulfonamide] | 10 to 100 | 500 to 5000 |  |
| C[C@H]1C[C@H](c2cn[nH]c2)CN(c2nccc(-c3cnc4ccc(Cl)cn34)n2)C1 (stereo in doubt) [I-198, 6-chloro-3-(2-((3S,5R)-3-methyl-5-(1H-pyrazol-4-yl)piperidin-1-yl)pyrimidin-4-yl)imidazo[1,2-a]pyridine] | < 10 | 500 to 5000 |  |
| Cc1cc(-c2cnc3ccc(Cl)cn23)nc(N2C[C@@H](C)O[C@H](c3cn[nH]c3C)C2)n1 [I-218, (2R,6R)-4-(4-(6-chloroimidazo[1,2-a]pyridin-3-yl)-6-methylpyrimidin-2-yl)-2-methyl-6-(5-methyl-1H-pyrazol-4-yl)morpholine] | 10 to 100 | 500 to 5000 |  |
| Cc1cnc(N2C[C@@H](C)C[C@H](c3cn[nH]c3)C2)nc1-c1cnc2ccc(Cl)cn12 (stereo in doubt) [I-197, 6-chloro-3-(5-methyl-2-((3 S, 5R)-3-methyl-5-(1H-pyrazol-4-yl)piperidin-1-yl)pyrimidin-4-yl)imidazo[1,2-a]pyridine] | 10 to 100 | < 500 |  |
| CS(=O)(=O)c1ccc2ncc(-c3nccc(N4CCCC(c5cn[nH]c5)C4)n3)n2c1 (centres unmarked) [I-313, 3-(4-(3-(1H-pyrazol-4-yl)piperidin-1-yl)pyrimidin-2-yl)-6-(methylsulfonyl)imidazo[1,2-a]pyridine] | 10 to 100 | 500 to 5000 |  |
| CC1CN(c2ccnc(-c3cnc4ccc(Cl)cn34)n2)C(C)C(c2cn[nH]c2)N1 (centres unmarked) [I-36, 6-chloro-3-[4-[2,5-dimethyl-3-(1H-pyrazol-4-yl)piperazin-1-yl]pyrimidin-2-yl]imidazo[1,2-a]pyridine] |  | < 500 | < 10 |
| CS(=O)(=O)NC[C@@H]1CN(c2nc(-c3cnc4ccc(C(F)F)cn34)ns2)CCO1 [I-107, (S)—N-((4-(3-(6-(difluoromethyl)imidazo[1,2-a]pyridin-3-yl)-1,2,4-thiadiazol-5-yl)morpholin-2-yl)methyl)methanesulfonamide] |  | < 500 | < 10 |

Results, then the compound that gave them:

| IC50 (GCN2 kinase) [nM] | IC50 [1] [nM] | Ki (GCN2 kinase) [nM] | SMILES |
| --- | --- | --- | --- |
| 10 to 100 | > 5000 |  | O=C(CCn1ccnc1)N1CCN(c2ccnc(-c3cnc4ccc(C(F)(F)F)cn34)n2)CC1c1cn[nH]c1 (centres unmarked) [I-422, 1-(2-(1H-pyrazol-4-yl)-4-(2-(6-(trifluoromethyl)imidazo[1,2-a]pyridin-3-yl)pyrimidin-4-yl)piperazin-1-yl)-3-(1H-imidazol-1-yl)propan-1-one] |
| 10 to 100 | < 500 |  | CS(=O)(=O)NC1CC(C(F)(F)F)CN(c2ccnc(-c3cnc4ccc(C(F)(F)F)cn34)n2)C1 (centres unmarked) [I-478, N-(5-(trifluoromethyl)-1-(2-(6-(trifluoromethyl)imidazo[1,2-a]pyridin-3-yl)pyrimidin-4-yl)piperidin-3-yl)methanesulfonamide] |
| 10 to 100 | 500 to 5000 |  | Cn1cnc(C(=O)N2CCN(c3ccnc(-c4cnc5ccc(C(F)(F)F)cn45)n3)CC2c2cn[nH]c2)c1 (centres unmarked) [I-446, (2-(1H-pyrazol-4-yl)-4-(2-(6-(trifluoromethyl)imidazo[1,2-a]pyridin-3-yl)pyrimidin-4-yl)piperazin-1-yl)(1-methyl-1H-imidazol-4-yl)methanone] |
| 10 to 100 | 500 to 5000 |  | C[C@@H](NS(C)(=O)=O)[C@@H]1[C@H](C)N(c2ccnc(-c3cnc4ccc(C(F)(F)F)cn34)n2)CCN1C1CC1 [I-506, N—((R)-1-((2 S,3 S)-1-cyclopropyl-3-methyl-4-(2-(6-(trifluoromethyl)imidazo[1,2-a]pyridin-3-yl)pyrimidin-4-yl)piperazin-2-yl)ethyl)methanesulfonamide] |
|  | 500 to 5000 | < 10 | CC1CC(C(N)=O)C(C)N(c2ccnc(-c3cnc4ccc(Cl)cn34)n2)C1 (centres unmarked) [I-50, 1-[2-(6-Chloroimidazo[1,2-a]pyridin-3-yl)pyrimidin-4-yl]-2,5-dimethyl-piperidine-3-carboxamide] |
| < 10 | < 500 |  | C[C@@H]1[C@H](CNS(C)(=O)=O)N(C2CC2)CCN1c1nccc(-c2cnc3ccc(C(F)(F)F)cn23)n1 [I-543, N-{(2S,3R)-1-Cyclopropyl-3-methyl-4-[4-(6-trifluoromethyl-imidazo[1,2-a]pyridin-3-yl)-pyrimidin-2-yl]-piperazin-2-ylmethyl}-methanesulfonamide] |
| 100 to 1000 | > 5000 |  | CC1(C)CN(c2ccnc(-c3cnc4ccc(C(F)(F)F)cn34)n2)CC2(CNC2)O1 [I-294, 6,6-dimethyl-8-(2-(6-(trifluoromethyl)imidazo[1,2-a]pyridin-3-yl)pyrimidin-4-yl)-5-oxa-2,8-diazaspiro[3.5]nonane] |
| 10 to 100 | 500 to 5000 |  | NC(=O)C1CN(c2ccnc(-c3cnc4ccc(C(F)(F)F)cn34)n2)CCN1 (centres unmarked) [I-217, 4-(2-(6-(trifluoromethyl)imidazo[1,2-a]pyridin-3-yl)pyrimidin-4-yl)piperazine-2-carboxamide] |
| 100 to 1000 | 500 to 5000 |  | CC1CN(c2ccnc(-c3cnc4ccc(C(F)(F)F)cn34)n2)CC(C)N1C1CC1 (centres unmarked) [I-392, 3-(4-(4-cyclopropyl-3,5-dimethylpiperazin-1-yl)pyrimidin-2-yl)-6-(trifluoromethyl)imidazo[1,2-a]pyridine] |
| 100 to 1000 | 500 to 5000 |  | C[C@@H]1[C@H](CNS(C)(=O)=O)N(C2CC2)[C@H](C)CN1c1ccnc(-c2cnc3ccc(C(F)(F)F)cn23)n1 (stereo in doubt) [I-494, N-(((2S,3R,6R)-1-cyclopropyl-3,6-dimethyl-4-(2-(6-(trifluoromethyl)imidazo[1,2-a]pyridin-3-yl)pyrimidin-4-yl)piperazin-2-yl)methyl)methanesulfonamide] |
| < 10 | < 500 |  | FC(F)(F)c1ccc2ncc(-c3nccc(N4CCN(C[C@@H]5CC56CCOCC6)[C@@H](c5cn[nH]c5)C4)n3)n2c1 [I-522, 3-(4-((S)-4-(((R)-6-oxaspiro[2.5]octan-1-yl)methyl)-3-(1H-pyrazol-4-yl)piperazin-1-yl)pyrimidin-2-yl)-6-(trifluoromethyl)imidazo[1,2-a]pyridine] |
| 10 to 100 | < 500 |  | FC(F)(F)c1ccc2ncc(-c3nccc(N4CCN(C[C@H]5CC56CCOCC6)[C@H](c5cn[nH]c5)C4)n3)n2c1 [I-523, 3-(4-((R)-4-(((S)-6-oxaspiro[2.5]octan-1-yl)methyl)-3-(1H-pyrazol-4-yl)piperazin-1-yl)pyrimidin-2-yl)-6-(trifluoromethyl)imidazo[1,2-a]pyridine] |
|  | > 5000 | 10 to 100 | CC1CN(c2nccc(-c3cnc4ccc(C(F)(F)F)cn34)n2)C(C)C(c2cn[nH]c2)N1 (single isomer, unassigned) [I-33, 3-[2-[2,5-Dimethyl-3-(1H-pyrazol-4-yl)piperazin-1-yl]pyrimidin-4-yl]-6-(trifluoromethyl)imidazo[1,2-a]pyridine] |
| 10 to 100 | > 5000 |  | O=C(CO)N1CCN(c2ccnc(-c3cnc4ccc(C(F)(F)F)cn34)n2)CC1c1cn[nH]c1 (centres unmarked) [I-421, 1-(2-(1H-pyrazol-4-yl)-4-(2-(6-(trifluoromethyl)imidazo[1,2-a]pyridin-3-yl)pyrimidin-4-yl)piperazin-1-yl)-2-hydroxyethan-1-one] |
| 10 to 100 | 500 to 5000 |  | C[C@@H]1C[C@H](N=S(C)(C)=O)CN(c2ccnc(-c3cnc4ccc(C5CC5)cn34)n2)C1 [I-300, (((3 S,5R)-1-(2-(6-cyclopropylimidazo[1,2-a]pyridin-3-yl)pyrimidin-4-yl)-5-methylpiperidin-3-yl)imino)dimethyl-λ6-sulfanone] |
|  | 500 to 5000 | < 10 | CC1CC(CS(C)(=N)=O)C(C)N(c2ccnc(-c3cnc4ccc(Cl)cn34)n2)C1 (centres unmarked) [I-47, ((1-(2-(6-Chloroimidazo[1,2-a]pyridin-3-yl)pyrimidin-4-yl)-2,5-dimethylpiperidin-3-yl)methyl)(imino)(methyl)-λ^6-sulfanone] |
|  | 500 to 5000 | < 10 | O=C1NCC2CN(c3ccnc(-c4cnc5ccc(C(F)(F)F)cn45)n3)CCN12 (centres unmarked) [I-43, 7-[2-[6-(Trifluoromethyl)imidazo[1,2-a]pyridin-3-yl]pyrimidin-4-yl]-1,2,5,6,8,8a-hexahydroimidazo[1,5-a]pyrazin-3-one] |
